In patent publication US9326973B2, “Hepatitis C virus inhibitors” (priority 2012, dated 2016):

System: HCV replicon, genotype-1a variant with glutamine 30 changed to glutamate in the NS5A protein
Assay: microbe, parasite or virus in culture
Assay type: cell-based, HCV genotype 1a
Conditions: HCV replicon genotype 1a Q30E (Q→E) variant; test compound titrated with an NS5A-targeting compound (BMS-790052 fixed at 200 nM); ranking of synergist activity
Excerpt: The NS5A synergistic inhibitory effect of test compounds can be determined using various amounts of an NS5A-targeting compound with titration of a second compound of interest. […] In one embodiment, the HCV genotype strain can be genotype 1a containing a change at amino acid 30 of the NS5A protein consisting of glutamine to glutamate. The test compound can be chosen from compounds listed above or from others present in the literature.

Row | SMILES | Fold-Synergistic 1a (Q30E) [fold]
1 | CC(C)[C@H](NC(=O)C1CC(F)(F)C1)c1nc(-c2ccc3c(c2)Cc2cc(-c4c[nH]c([C@@H](NC(=O)C5CC(F)(F)C5)C(C)C)n4)ccc2-3)c[nH]1 [Compound N-71] | >100
2 | CC(C)[C@H](NC(=O)C(C)(C)OCC(F)F)c1nc(-c2ccc(-c3ccc(-c4c[nH]c([C@@H](NC(=O)C(C)(C)OCC(F)F)C(C)C)n4)cc3F)cc2)c[nH]1 [Compound N-98] | >100
3 | CCC(C)CC(=O)N1CCC[C@H]1c1ncc(-c2ccc(-c3ccc(-c4cnc([C@@H]5CCCN5C(=O)CC(C)CC)[nH]4)cc3)cc2)[nH]1 (stereo partly drawn) [Compound S-172] | >10
4 | CC(C)(C)[C@H](NC(=O)C1CC(=O)c2ccccc21)c1nc(-c2ccc(-c3ccc(-c4c[nH]c([C@@H](NC(=O)C5CC(=O)c6ccccc65)C(C)(C)C)n4)cc3)cc2)c[nH]1 (stereo partly drawn) [Compound S-257] | >10
5 | CC(C)(C)[C@H](NC(=O)C1CCN(c2cccc(C#N)c2)C1=O)c1nc(-c2ccc(-c3ccc(-c4c[nH]c([C@@H](NC(=O)C5CCN(c6cccc(C#N)c6)C5=O)C(C)(C)C)n4)cc3)cc2)c[nH]1 (stereo partly drawn) [Compound S-291] | >100
6 | C[C@@H](OC(=O)N(C)C1(C(=O)N[C@H](c2nc(-c3ccc(-c4ccc(-c5c[nH]c([C@@H](NC(=O)C6(N(C)C(=O)O[C@H](C)C(F)(F)F)CC6)C6(C)CC6)n5)cc4)cc3)c[nH]2)C2(C)CC2)CC1)C(F)(F)F [Compound L-92] | >100
7 | CC(C)(C)OC(=O)N1CCC[C@H]1C(=O)N[C@H](c1nc(-c2ccc(-c3ccc(-c4c[nH]c([C@@H](NC(=O)[C@@H]5CCCN5C(=O)OC(C)(C)C)C(C)(C)C)n4)cc3)cc2)c[nH]1)C(C)(C)C [Compound W-86] | >100
8 | O=C(c1ccc2c(c1)OCO2)N1CCC[C@H]1c1ncc(-c2ccc(-c3ccc(-c4cnc([C@@H]5CCCN5C(=O)c5ccc6c(c5)OCO6)[nH]4)cc3)cc2)[nH]1 [Compound S-121] | <10
9 | CC(C)(C)OC(=O)N[C@H]1CCC[C@@H]1C(=O)N[C@H](c1nc(-c2ccc(-c3ccc(-c4c[nH]c([C@@H](NC(=O)[C@H]5CCC[C@@H]5NC(=O)OC(C)(C)C)C(C)(C)C)n4)cc3)cc2)c[nH]1)C(C)(C)C [Compound W-9] | >100
10 | CC1([C@H](NC(=O)C2(C3(O)CCC(F)(F)CC3)CC2)c2nc(-c3ccc(-c4ccc(-c5c[nH]c([C@@H](NC(=O)C6(C7(O)CCC(F)(F)CC7)CC6)C6(C)CC6)n5)cc4)cc3)c[nH]2)CC1 [Compound P-147] | >100
11 | CC(C)(C)OC(=O)N[C@]1(C(=O)N[C@H](c2nc(-c3ccc(-c4ccc(-c5c[nH]c([C@@H](NC(=O)[C@@]6(NC(=O)OC(C)(C)C)C[C@H]6CC(F)F)C(C)(C)C)n5)cc4)cc3)c[nH]2)C(C)(C)C)C[C@H]1CC(F)F [Compound W-1] | >100
12 | CC(C)(C)[C@H](NC(=O)C1(C(=O)N2CCC(F)(F)CC2)CC1)c1nc(-c2ccc(-c3ccc(-c4c[nH]c([C@@H](NC(=O)C5(C(=O)N6CCC(F)(F)CC6)CC5)C(C)(C)C)n4)cc3)cc2)c[nH]1 [Compound P-148] | >100
13 | CC(C)CC(=O)NC1(c2nc(-c3ccc(-c4ccc(-c5c[nH]c(C6(NC(=O)CC(C)C)CCCCC6)n5)cc4)cc3)c[nH]2)CCCCC1 [Compound N-24] | <10
14 | C=CCC(F)(F)C(=O)N[C@H](c1nc(-c2ccc(-c3ccc(-c4c[nH]c([C@@H](NC(=O)C(F)(F)CC=C)C(C)(C)C)n4)cc3)cc2)c[nH]1)C(C)(C)C [Compound S-287] | >100
15 | COCCC(=O)N1CCC[C@H]1c1ncc(-c2ccc(-c3ccc(-c4cnc([C@@H]5CCCN5C(=O)CCOC)[nH]4)cc3)cc2)[nH]1 [Compound S-192] | <10
16 | CC(C)(C)[C@H](NC(=O)C1CCCCS1)c1nc(-c2ccc(-c3ccc(-c4c[nH]c([C@@H](NC(=O)C5CCCCS5)C(C)(C)C)n4)cc3)cc2)c[nH]1 (stereo partly drawn) [Compound P-173] | >100
17 | O=C([C@H]1CCCO1)N1CCC[C@H]1c1ncc(-c2ccc(-c3ccc(-c4cnc([C@@H]5CCCN5C(=O)[C@H]5CCCO5)[nH]4)cc3)cc2)[nH]1 [Compound S-111] | <10
18 | N#CCC(=O)N1CCC[C@H]1c1ncc(-c2ccc(-c3ccc(-c4cnc([C@@H]5CCCN5C(=O)CC#N)[nH]4)cc3)cc2)[nH]1 [Compound S-171] | <10
19 | O=C(C1Cc2ccccc21)N1CCC[C@H]1c1ncc(-c2ccc(-c3ccc(-c4cnc([C@@H]5CCCN5C(=O)C5Cc6ccccc65)[nH]4)cc3)cc2)[nH]1 (stereo partly drawn) [Compound S-163] | <10
20 | CC(C)(C)[C@H](NC(=O)C(F)(F)C(O)c1ccccc1)c1nc(-c2ccc(-c3ccc(-c4c[nH]c([C@@H](NC(=O)C(F)(F)C(O)c5ccccc5)C(C)(C)C)n4)cc3)cc2)c[nH]1 (stereo partly drawn) [Compound P-168] | >100

Row | SMILES | Fold-Synergistic 1a (Q30E) [fold]
21 | CCN(CC(F)(F)F)C(=O)C(=O)N[C@H](c1nc(-c2ccc(-c3ccc(-c4c[nH]c([C@@H](NC(=O)C(=O)N(CC)CC(F)(F)F)C5CC5)n4)cc3)cc2)c[nH]1)C1CC1 [Compound L-35] | >100
22 | COC(=O)N[C@H](C(=O)N[C@H](c1nc(-c2ccc(-c3ccc(-c4c[nH]c([C@@H](NC(=O)[C@@H](NC(=O)OC)C(C)C)C(C)(C)C)n4)cc3)cc2)c[nH]1)C(C)(C)C)C(C)C [Compound N-35] | >100
23 | CC(C)CC(=O)N[C@H](c1nc(-c2ccc3cc(-c4ccc(-c5cnc([C@@H](NC(=O)CC(C)C)C(C)(C)C)[nH]5)cc4)ccc3c2)c[nH]1)C(C)(C)C [Compound N-9] | >10
24 | CN(C)C(=N[C@H](c1ncc(-c2ccc(-c3ccc(-c4cnc([C@@H](NC(=O)C5(C6(O)CCOCC6)CCC5)C(C)(C)C)[nH]4)cc3)cc2)[nH]1)C(C)(C)C)N(C)C [Compound B85] | >10
25 | C=C[C@H]1C[C@@]1(NC(=O)OC(C)(C)C)C(=O)N[C@H](c1nc(-c2ccc(-c3ccc(-c4c[nH]c([C@@H](NC(=O)[C@]5(NC(=O)OC(C)(C)C)C[C@@H]5C=C)C(C)(C)C)n4)cc3)cc2)c[nH]1)C(C)(C)C [Compound W-4] | >100
26 | CC(C)CC(=O)NC1(c2nc(-c3ccc(-c4ccc(-c5c[nH]c(C6(NC(=O)CC(C)C)CCC6)n5)cc4)cc3)c[nH]2)CCC1 [Compound N-11] | <10
27 | COC(C)(C)C(=O)N[C@H](c1nc(-c2ccc(-c3ccc(-c4c[nH]c([C@@H](NC(=O)C(C)(C)OC)C(C)C)n4)c(F)c3)cc2)c[nH]1)C(C)C [Compound N-87] | >100
28 | CC(C)(C)OC(=O)N1C[C@H](O)C[C@H]1C(=O)N[C@H](c1nc(-c2ccc(-c3ccc(-c4c[nH]c([C@@H](NC(=O)[C@@H]5C[C@@H](O)CN5C(=O)OC(C)(C)C)C5(C)CC5)n4)cc3)cc2)c[nH]1)C1(C)CC1 [Compound W-95] | >100
29 | Cc1cc(-c2ccc(-c3c[nH]c([C@@H](NC(=O)C4CCC(F)(F)CC4)C(C)C)n3)cc2)ccc1-c1c[nH]c([C@@H](NC(=O)C2CCC(F)(F)CC2)C(C)C)n1 [Compound N-82] | >100
30 | CC(C)(C)[C@H](NC(=O)C1CC(=O)N(c2ccccc2O)C1)c1nc(-c2ccc(-c3ccc(-c4c[nH]c([C@@H](NC(=O)C5CC(=O)N(c6ccccc6O)C5)C(C)(C)C)n4)cc3)cc2)c[nH]1 (stereo partly drawn) [Compound S-265] | >100
31 | CC(C)N(C(=O)C(=O)N[C@H](c1nc(-c2ccc(-c3ccc(-c4c[nH]c([C@@H](NC(=O)C(=O)N(C(C)C)C5CC5)C5CC5)n4)cc3)cc2)c[nH]1)C1CC1)C1CC1 [Compound L-36] | >100
32 | CC(C)(C)C(=O)N1C[C@H](F)C[C@H]1C(=O)N[C@H](c1nc(-c2ccc(-c3ccc(-c4c[nH]c([C@@H](NC(=O)[C@@H]5C[C@@H](F)CN5C(=O)C(C)(C)C)C(C)(C)C)n4)cc3)cc2)c[nH]1)C(C)(C)C [Compound W-105] | >100
33 | CC(C)(C)[C@H](NC(=O)C1(c2ccc(F)cc2)CC1(C)C)c1nc(-c2ccc(-c3ccc(-c4c[nH]c([C@@H](NC(=O)C5(c6ccc(F)cc6)CC5(C)C)C(C)(C)C)n4)cc3)cc2)c[nH]1 (stereo partly drawn) [Compound S-285] | >100
34 | CC(C)(C)OC(=O)N[C@@H]1CCC[C@H]1C(=O)N[C@H](c1nc(-c2ccc(-c3ccc(-c4c[nH]c([C@@H](NC(=O)[C@@H]5CCC[C@H]5NC(=O)OC(C)(C)C)C(C)(C)C)n4)cc3)cc2)c[nH]1)C(C)(C)C [Compound W-12] | >100
35 | CN1CCC(C(=O)N[C@H](c2nc(-c3ccc(-c4ccc(-c5c[nH]c([C@@H](NC(=O)C6CCN(C)CC6)C(C)(C)C)n5)cc4)cc3)c[nH]2)C(C)(C)C)CC1 [Compound S-268] | >10
36 | CC(C)(C)[C@H](NC(=O)C(=O)N1CCCCCC1)c1nc(-c2ccc(-c3ccc(-c4c[nH]c([C@@H](NC(=O)C(=O)N5CCCCCC5)C(C)(C)C)n4)cc3)cc2)c[nH]1 [Compound W-32] | >100
37 | O=C(c1cccs1)N1CCC[C@H]1c1ncc(-c2ccc(-c3ccc(-c4cnc([C@@H]5CCCN5C(=O)c5cccs5)[nH]4)cc3)cc2)[nH]1 [Compound S-182] | <10
38 | COC(=O)N[C@H](C(=O)NC1(c2nc(-c3ccc(-c4ccc(-c5c[nH]c(C6(NC(=O)[C@@H](NC(=O)OC)C(C)C)CCCCC6)n5)cc4)cc3)c[nH]2)CCCCC1)C(C)C [Compound N-23] | <10
39 | O=C(CC(c1ccccc1)c1ccccc1)N1CCC[C@H]1c1ncc(-c2ccc(-c3ccc(-c4cnc([C@@H]5CCCN5C(=O)CC(c5ccccc5)c5ccccc5)[nH]4)cc3)cc2)[nH]1 [Compound S-143] | >10
